Experimental data as given in patent publication US6767569B1, “Surface decontamination of cooked sausage and processed meat and poultry products” (priority 1999, dated 2004).

Assays:
Listeria species = assay: Dip treatment of inoculated frankfurters, qualitative (enrichment) procedure with TECRA Listeria ELISA; type: cell-based, Listeria monocytogenes; design: key: POS: Positive indicates that at least one colony grew during the test; NEG: Negative indicated that no colonies grew
Description: Following air drying, one frank per treatment was placed in a sterile Stomacher bag and analyzed quantitatively for residual L. monocytogenes populations. The remaining two franks were retained in sterile Stomacher bags and used for qualitative analysis, if necessary (in the event no surviving cells were detected using quantitative procedures).
The plating techniques used were capable of detection down to 5 cfu/ml (1 colony/0.2 ml) for the spiral plating method and 0.5 cfu/ml for the spread plating method (1 colony/2 ml). In the event that no surviving L. monocytogenes cells were observed using direct plating procedures, two franks per treatment were evaluated using qualitative (enrichment) procedures. A 10 mL aliquot of the retained homogenate was placed added to 90 mL of UVM broth to achieve a 1:10 dilution. These samples were shaken by hand for 1 minute and incubated at 30° C. for 24 h. Following this primary enrichment, 0.1 mL was transferred to 10 mL of Fraser broth and incubated at 30° C. for 24 h. This secondary enrichment was then used to perform an ELISA screening procedure (TECRA Listeria species assay). Results of this qualitative analysis were used to indicate whether the sample was “positive” or “negative” for the presence of Listeria species.
The target inoculation level before treatment was 1,000 CFU/frank. It can be seen that a 2 second treatment is sufficient to remove most, but not all Listeria from the franks. A 10 second treatment reduces the Listeria count below the detection limit of the quantitative assessment procedures, although a few colonies were detected in the qualitative procedure. […] Therefore, the true population of any samples with a population of <90 CFU/frank could not be specifically determined.

Salmonella spp. = type: cell-based; conditions: pork skin; 5 seconds spray; 2% lactic acid, 2% acetic acid, 0.1% peracetic acid; after 48 hours
Description: (§1) Samples of pork skin were inoculated separately with either 5 strains of E. coli or 5 strains of Salmonella spp. (mixtures X and Y, see Example 4). Five different treatments were evaluated for effectiveness in reducing bacteria on pork skin. […] EMB agar was used for E. coli and XLD for Salmonella, and a nutrient agar was also used for E. coli and Salmonella for total count.
(§2) The five strains of generic E. coli and five strains of Salmonella spp. were cultured and transferred individually into 100 mL of tryptic soy broth (TSB, DIFCO, Detroit, Mich.) with 1% dextrose (Sigma, St. Louis, Mo.) in duplicate. Dextrose was added to induce acid tolerance in the microbial cell. The cultures were incubated at 35° C. for 24 hrs. to obtain ca. 10^9 colony forming units (CFU)/mL. The cells were harvested by the centrifuging each culture at 10,000 Xg force for 10 min. at 4° C., (Beckman J2-HS centrifuge, Beckman Instruments, Inc., Palo Alto, Calif.). After centrifugation, the supernatant was poured off, and cells remained in pellet form. Each pellet was individually re-suspended with 50 mL of 0.1% peptonewater (DIFCO, Detroit, Mich.). All five strains of E. coli or Salmonella spp. inoculum were transferred to separate HDPE plastic spray bottles (Sprayco™, Detroit, Mich.) to be used in the mist inoculation of pork skin samples.
(§3) For E. coli, PCA and EMB media were used, and for Salmonella, PCA and XLD media were used. Bacto Plate Count Agar (PCA) was used in this study as a standard methods medium for the enumeration of bacteria before and after treatments. Spiral (sl), or spread (sd) plate technique were used for viable cell counts. Duplicate plates were performed for each treatment.
(§4) Fresh pork skins taken from the loin region were cut to rectangles of 19.35 cm^2. A hole was bored into the top of each sample so that each sample could be suspended from an individual hook in the spray cabinet. Samples were laid out onto trays wrapped in butcher paper. Each tray was individually spray inoculated with E. coli or Salmonella spp. in a Plexiglas spray chamber to ca. 8.4 mL of inoculum. After the inoculation, each tray was placed under a laminar flow hood for 1 hr. to allow the surface to dry and for the attachment of the bacteria to the pork skin.
(§5) The peracetic acid (PAA) used in this study was a 35.0% PAA buffered, liquid solution prepared from a STERIS 20™ two compartment cup (a dry powder containing anticorrosive additives, buffers, sequestrants, and surfactants). The peracetic acid determined before each use of the treatment using a calibration curve.
(§6) Five inoculated samples were individually placed on stainless steel hooks in. a spray cabinet at ambient temperature.
(§7) The samples were exposed to a continuous spray of the selected treatment for 5 seconds at a spray pressure of 16-18 psi.
(§8) The treated samples were placed into individual stomacher bags containing 30 mL of 0.1% peptone water (DIFCO, Detroit, Mich.) and stomached for 2 min. Serial dilutions of 0, 10^−2, and 10^−4 were spiral plated (WASP spiral plater, Bioscience International, Rockville, Md.) on PCA (DIFCO, Detroit, Mich.) and EMB (DIFCO, Detroit, Mich.) for E. coli and on plate count agar (PCA, DIFCO, Detroit, Mich.) and xylose lysine decarboxylase agar (XLD, DIFCO, Detroit, Mich.) for Salmonella spp. Samples were also spread plated on PCA and EMB agar for E. coli or PCA and XLD agar for Salmonella spp, using […] for a total of 1 mL on 4 plates. This was to ensure a countable plate. Plates were inverted and incubated at 35° C. for 24 hrs. (48 hrs. for Salmonella spp.).

E. coli = type: cell-based; conditions: 5 seconds spray
Description: as §1, §2, §3, §4, §5, §6, §7, §8

[1] = pork skin, 2% lactic acid, 2% acetic acid, 0.1% peracetic acid, after 24 hours

CC(=O)OO [peracetic acid]
POS/NEG (qualitative analysis after treatment) (Listeria species; PAA 100 ppm (actual 114 ppm), 2 sec exposure, 2 sec rinse): POS
POS/NEG (qualitative analysis after treatment) (Listeria species; PAA 100 ppm (actual 114 ppm), 10 sec exposure, 10 sec rinse): POS
POS/NEG (qualitative analysis after treatment) (Listeria species; PAA 500 ppm (actual 572 ppm), 2 sec exposure, 2 sec rinse): POS
POS/NEG (qualitative analysis after treatment) (Listeria species; PAA 500 ppm (actual 572 ppm), 10 sec exposure, 10 sec rinse): POS and NEG
POS/NEG (qualitative analysis after treatment) (Listeria species; PAA 1000 ppm (actual 1146 ppm), 2 sec exposure, 2 sec rinse): NEG and POS
POS/NEG (qualitative analysis after treatment) (Listeria species; PAA 1000 ppm (actual 1146 ppm), 10 sec exposure, 10 sec rinse): NEG and POS
Total Count (Salmonella) on PCA (Salmonella spp.): 5.34 Log CFU/cm^2
Total Count (Salmonella) on XLD (Salmonella spp.): 3.83 Log CFU/cm^2
reduction of E. coli on pork skin (E. coli; peracetic acid 0.1%): 3 log/cm^2
Total Count (E. coli) on EMB (E. coli; [1]): 3.04 Log CFU/cm^2
Total Count (E. coli) on PCA (E. coli; [1]): 3.28 Log CFU/cm^2
